Assay results taken from US9060943B2, “Compositions comprising trans-tert-butyl cyclohexanol as skin irritation-reducing agent” (SYMRISE AG, priority 2009, dated 2015).

Columns and labels:
[1] = system: volunteers who were sensitive to capsaicin; test: Clinical study: stinging and burning at the nasolabial fold, O/W-emulsion with capsaicin with or without active; type: in vivo, human; details: O/W-emulsion with 31.6 ppm capsaicin and 1 wt. % active on nasolabial fold; evaluated 3 minutes later; 20 volunteers
Protocol: A study was performed with 20 volunteers who were sensitive to capsaicin. […] On day 1 sample c2 was assessed versus control. On day 2 sample c1 was assessed versus control. The stinging and burning effects were evaluted 3 minutes later on the same scale as in Example 1.2.

[2] = system: volunteers who were sensitive to capsaicin; test: In vivo testing: capsaicin-induced stinging on the cheek, O/W-emulsion versus placebo; set-up: species or system human; details: O/W-emulsion with 1 wt. % applied 60 s after 31.6 ppm capsaicin on cheek; evaluated 5 minutes later; 9 volunteers
Protocol: A study was performed with 9 volunteers who were sensitive to capsaicin. […] After 60 seconds all participants sensed a pronounced stinging effect. Then, an O/W-emulsion with 1 wt. % racemic trans-4-tert-butyl cyclohexanol (purity >99 wt. %) was applied on one cheek and the placebo O/W-emulsion on the other cheek (blinded samples).

[3] = target: T1, recombinant human TRPV1 (Homo sapiens, UniProt Q8NER1); test: Calcium assay (Fluo-4) for TRPV1 antagonism in HEK293 cells in the presence of capsaicin; type: cell-based; details: for TRPV1 antagonism (result in words), pre-incubation mode: isomer applied 10 min before addition of capsaicin; for TRPV1 antagonism (result in words): parallel application with capsaicin as agonist
T1 construct: expressed in transfected cells
Protocol: Three samples of cis- and/or trans-4-tert-butyl cyclohexanol were assessed: 1) 99% trans-isomer, 2) an isomeric mixture enriched in the cis-isomer (59% cis, 41% trans) and 3) 99% cis-isomer.
Calciumassay based on fluorescent dye Fluo-4-AM
Negative Control: KH-buffer (solvent)
Positive Control: lonomycin (generell calcium induction)
Positive Control Capsaicin (natural agonist of TRPV1)
One day prior to performing the assay, HEK293 cells stably overexpressing recombinant human TRPV1 were plated onto black-walled assay plates, at a density of 45,000 cells per well. Using the FLEX Station system the change of the cellular calcium concentration (calcium influx) induced by TRPV1 activation was monitored using the calcium sensitive fluorescent dye fluo-4 (494 nm/516 nm (exitation/emission)). The pharmacological TRPV1 antagonist Ruthenium Red (1 μM) was used as positive control [J. Biol. Chem. 2004, 279 (34): 35741-8]. The dye-loaded stable cells in plates were placed into the fluorescence microtiter plate reader to monitor fluorescence (excitation 488 nm, emission 520 nm) change after the addition of 50 μl assay buffer (118 mM NaCl; 4.7 mM KCl; 1.2 mM MgSO4; 1.2 mM KH2PO4; 4.2 mM NaHCO3; 1.3 mM CaCl2; 10 mM HEPES (N-(2-hydroxyethyl)-piperazine-N′-2-ethanesulfonic acid) (pH: 7.4)) supplemented with an antagonist. Calcium mobilization was quantified as the change of peak fluorescence (ΔF) over the baseline level (F). The analysis was done with the software of the microtiter plate reader (FLEX Station). Potential TRPV1 antagonists were tested at an effective range of 0.5-50 μM. The test compounds were either applied in parallel to 30 nM capsaicin or 10 min prior to the agonist. TRPV1 antagonists were tested for their antagonistic activity in the presence of 30 nM capsaicin, which is the EC80 effective capsaicin concentration leading to 80% of the maximum capsaicin dependent TRPV1 activation.
Antagonistic efficacy of the isomers of 4-tert-butyl cyclohexanol on transient receptor potential ion channel 1 in cell based fluorescent analysis.
The three samples were tested for TRPV1 antagonism at parallel application with capsaicin as agonist.
TRPV1 antagonist in vitro at incubation prior to capsaicin: cis-4-tert-butyl cyclohexanol and trans-4-tert-butyl cyclohexanol were applied to HEK293 cells 10 min before capsaicin treatment.
We therefore additionally tested the pure cis- and trans-isomers of 4-tert-butyl cyclohexanol respectively in a pre-incubation mode with application of the respective isomer 10 min before addition of capsaicin.

T1 sequence (Q8NER1 whole entry): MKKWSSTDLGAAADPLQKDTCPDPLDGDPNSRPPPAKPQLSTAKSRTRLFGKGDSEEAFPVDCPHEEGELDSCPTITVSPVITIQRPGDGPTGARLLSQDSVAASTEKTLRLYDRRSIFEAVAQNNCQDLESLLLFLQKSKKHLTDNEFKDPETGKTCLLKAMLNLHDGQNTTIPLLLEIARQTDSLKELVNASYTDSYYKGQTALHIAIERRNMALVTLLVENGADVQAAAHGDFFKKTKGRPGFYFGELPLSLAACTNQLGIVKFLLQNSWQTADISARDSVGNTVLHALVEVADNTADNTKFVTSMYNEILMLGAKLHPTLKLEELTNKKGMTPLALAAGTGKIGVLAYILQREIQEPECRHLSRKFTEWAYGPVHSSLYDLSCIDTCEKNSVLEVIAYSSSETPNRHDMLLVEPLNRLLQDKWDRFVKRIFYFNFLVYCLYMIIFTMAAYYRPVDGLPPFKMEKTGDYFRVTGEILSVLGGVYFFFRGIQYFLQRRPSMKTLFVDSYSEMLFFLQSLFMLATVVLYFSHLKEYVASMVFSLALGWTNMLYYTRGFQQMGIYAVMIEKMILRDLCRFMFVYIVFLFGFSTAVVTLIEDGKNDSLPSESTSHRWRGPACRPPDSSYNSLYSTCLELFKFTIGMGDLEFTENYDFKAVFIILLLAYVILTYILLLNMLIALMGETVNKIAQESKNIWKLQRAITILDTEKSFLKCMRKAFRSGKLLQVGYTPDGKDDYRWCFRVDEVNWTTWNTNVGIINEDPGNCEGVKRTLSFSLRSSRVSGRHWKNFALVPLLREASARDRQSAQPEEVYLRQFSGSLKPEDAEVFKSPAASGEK

IC50 ([3]; parallel application with 30 nM capsaicin as agonist, HEK293 cells overexpressing human TRPV1) [µM]	EC80 effective capsaicin concentration (80% of maximum capsaicin dependent TRPV1 activation) ([3]; agonist, HEK293 cells overexpressing human TRPV1) [µM]	Structure (SMILES)	average rating of inhibition/reduction of stinging and burning on scale 0 to 4 [1]	average rating of reduction of stinging effect on scale 0 (no effect) to 4 (completely suppressed) [2]	TRPV1 antagonism (result in words), pre-incubation mode [3]	TRPV1 antagonism (result in words) [3]
34.1	–	CC(C)(C)[C@H]1CC[C@H](O)CC1 [trans-4-tert-butyl cyclohexanol]	2.95	3.10	strong activity	significantly more active
–	–	CC(C)(C)[C@H]1CC[C@@H](O)CC1 [cis-4-tert-butyl cyclohexanol, reference compound]	–	–	not active	inactive
–	0.03	COc1cc(CNC(=O)CCCC/C=C/C(C)C)ccc1O [capsaicin, reference compound]	–	–	–	–
